Converted amounts (≈) assume the structure as drawn.
Columns and labels:
Type in all cases: functional
[1] = system: Escherichia coli; assay: Antibacterial activity against Escherichia coli after 24 hrs by broth microdilution method
[2] = system: Staphylococcus aureus; assay: Antibacterial activity against Staphylococcus aureus ATCC 25923 after 24 hrs by broth microdilution method
[3] = system: Klebsiella pneumoniae; assay: Antibacterial activity against Klebsiella pneumoniae ATCC 27736 after 24 hrs by broth microdilution method
[4] = system: Cryptococcus neoformans; assay: Antifungal activity against Cryptococcus neoformans after 72 hrs by broth microdilution method
[5] = system: Trichophyton mentagrophytes; assay: Antifungal activity against sTrichophyton mentagrophytes after 96 hrs by broth microdilution method
[6] = system: Candida parapsilosis; assay: Antifungal activity against Candida parapsilosis ATCC 22019 after 48 hrs by broth microdilution method; details: Lodderomyces parapsilosis, ATCC 22019, 48 h
[7] = system: Aspergillus fumigatus; assay: Antifungal activity against Aspergillus fumigatus after 72 hrs by broth microdilution method
[8] = system: Sporothrix schenckii; assay: Antifungal activity against Sporothrix schenckii after 72 hrs by broth microdilution method
[9] = system: Candida albicans; assay: Antifungal activity against Candida albicans after 48 hrs by broth microdilution method

Row | Compound | MIC [1] [µg/mL] | MIC ([2]; ATCC 25923, 24 h) [µg/mL] | MIC ([3]; ATCC 27736, 24 h) [µg/mL] | MIC [4] [µg/mL] | MIC [5] [µg/mL] | MIC [6] [µg/mL] | MIC [7] [µg/mL] | MIC [8] [µg/mL] | MIC [9] [µg/mL] | MIC [2] [µg/mL] | MIC [3] [µg/mL]
1 | O=C1C(Cl)=C(Sc2ccccc2)C(=O)c2ccccc21 | 12.5 (≈ 41.6 µM) | 25 (≈ 83.1 µM) | > 50 |  |  |  |  |  |  |  | 
2 | O=C1C(Cl)=C(Nc2ccccc2)C(=O)c2ccccc21 | > 50 | > 50 | > 50 | > 50 | > 50 | > 50 | > 50 | > 50 | > 50 |  | 
3 | NYSTATIN |  |  |  | 3.5 |  |  |  | 13.2 | 7.8 |  | 
4 | O=C1C(Cl)=C(N(c2ccccc2)c2ccccc2)C(=O)c2ccccc21 | > 50 | 25 (≈ 69.5 µM) | 25 (≈ 69.5 µM) | 25 (≈ 69.5 µM) | 50 (≈ 139 µM) | 12.5 (≈ 34.7 µM) | 50 (≈ 139 µM) | 6.25 (≈ 17.4 µM) | 12.5 (≈ 34.7 µM) |  | 
5 | COc1cccc(SC2=C(N(c3ccccc3)c3ccccc3)C(=O)c3ccccc3C2=O)c1 | > 50 | 25 (≈ 53.9 µM) | 50 (≈ 108 µM) |  |  |  |  |  |  |  | 
6 | C[C@@H]1[C@H](O)[C@@H](C)/C=C/C=C/C=C/C=C/C=C/C=C/C=C/[C@H](O[C@@H]2O[C@H](C)[C@@H](O)[C@H](N)[C@@H]2O)C[C@@H]2O[C@](O)(C[C@@H](O)C[C@@H](O)[C@H](O)CC[C@@H](O)C[C@@H](O)CC(=O)O[C@H]1C)C[C@H](O)[C@H]2C(=O)O [AMPHOTERICIN B] |  |  |  | 0.78 (≈ 0.844 µM) | 1.56 (≈ 1.69 µM) |  |  |  | 0.39 (≈ 0.422 µM) |  | 
7 | GENTAMICIN | 0.18 |  |  |  |  |  |  |  |  | 0.78 | 0.39
8 | Cn1c(N)c2ccccc2nc2c(=O)c3ccccc3c(=O)c1=2 | 25 (≈ 82.4 µM) | > 50 | 50 (≈ 165 µM) | 50 (≈ 165 µM) | 25 (≈ 82.4 µM) | 50 (≈ 165 µM) | 25 (≈ 82.4 µM) | 25 (≈ 82.4 µM) | > 50 |  | 
9 | O=C1C(Sc2ccccc2)=C(N(c2ccccc2)c2ccccc2)C(=O)c2ccccc21 | > 50 | 50 (≈ 115 µM) | 50 (≈ 115 µM) |  |  |  |  |  |  |  | 
10 | NC1=C(Sc2cccc3ccccc23)C(=O)c2ccccc2C1=O | > 50 | 12.5 (≈ 37.7 µM) | 12.5 (≈ 37.7 µM) | 50 (≈ 151 µM) | 25 (≈ 75.4 µM) | 50 (≈ 151 µM) | 25 (≈ 75.4 µM) | > 50 | 25 (≈ 75.4 µM) |  | 
11 | NC[C@H]1O[C@H](O[C@H]2[C@H](O)[C@@H](O[C@H]3O[C@H](CO)[C@@H](O)[C@H](N)[C@H]3O)[C@H](N)C[C@@H]2N)[C@H](O)[C@@H](O)[C@@H]1O [KANAMYCIN] | 16 (≈ 33 µM) | 2 (≈ 4.13 µM) | 32 (≈ 66 µM) |  |  |  |  |  |  |  | 
12 | NC[C@H]1O[C@H](O[C@H]2[C@H](O)[C@@H](O[C@H]3O[C@H](CO)[C@@H](O)[C@H](N)[C@H]3O)[C@H](N)C[C@@H]2N)[C@H](N)C[C@@H]1O [TOBRAMYCIN] | 0.5 (≈ 1.07 µM) | 0.25 (≈ 0.535 µM) | 1 (≈ 2.14 µM) |  |  |  |  |  |  |  | 
13 | Nc1c2ccccc2nc2c(=O)c3ccccc3c(=O)c=2n1-c1ccccc1 |  |  |  | 25 (≈ 68.4 µM) | 12.5 (≈ 34.2 µM) | 25 (≈ 68.4 µM) | > 50 | > 50 | 25 (≈ 68.4 µM) |  | 
14 | COc1cccc(SC2=C(N)C(=O)c3ccccc3C2=O)c1 | > 50 | 25 (≈ 80.3 µM) | 12.5 (≈ 40.1 µM) | 12.5 (≈ 40.1 µM) | 12.5 (≈ 40.1 µM) | 25 (≈ 80.3 µM) | 6.25 (≈ 20.1 µM) | 25 (≈ 80.3 µM) | 12.5 (≈ 40.1 µM) |  | 
15 | O=C1C(Nc2ccccc2)=C(Sc2cccc3ccccc23)C(=O)c2ccccc21 |  |  |  | > 50 | > 50 | > 50 | > 50 | > 50 | 50 (≈ 123 µM) |  | 
16 | N#Cc1ccccc1NC1=C(Nc2ccccc2C#N)C(=O)c2ccccc2C1=O |  |  |  | 25 (≈ 64 µM) | > 50 | 50 (≈ 128 µM) | > 50 | > 50 | > 50 |  | 
